From ChEMBL document CHEMBL5465560, “Selectivity Literature for EUbOPEN Chemogenomic Library” (2024)
Each block holds one compound with its values, some of them ahead of it.

How the values were obtained:
[1] = molecular target: Serine/threonine-protein kinase MRCK beta (Homo sapiens) (UniProt Q9Y5S2); conditions: at 10 µM
[2] = molecular target: Platelet-derived growth factor receptor alpha (Homo sapiens, UniProt P16234); conditions: at 10 µM
[3] = molecular target: Receptor-interacting serine/threonine-protein kinase 2 (Homo sapiens, UniProt O43353); experiment: Selectivity interaction (Ambit KINOMEscan and KiNATiv profiling in Jurkat cells) EUB0000090b RIPK2; format: cell-based; conditions: at 1 µM
[4] = molecular target: T1, Testis-specific serine/threonine-protein kinase 1 (Homo sapiens) (UniProt Q9BXA7); experiment: Selectivity interaction (Ambit KINOMEscan and KiNATiv profiling in Jurkat cells) EUB0000090b TSSK1B; format: cell-based; conditions: at 1 µM
T1 sequence (whole entry): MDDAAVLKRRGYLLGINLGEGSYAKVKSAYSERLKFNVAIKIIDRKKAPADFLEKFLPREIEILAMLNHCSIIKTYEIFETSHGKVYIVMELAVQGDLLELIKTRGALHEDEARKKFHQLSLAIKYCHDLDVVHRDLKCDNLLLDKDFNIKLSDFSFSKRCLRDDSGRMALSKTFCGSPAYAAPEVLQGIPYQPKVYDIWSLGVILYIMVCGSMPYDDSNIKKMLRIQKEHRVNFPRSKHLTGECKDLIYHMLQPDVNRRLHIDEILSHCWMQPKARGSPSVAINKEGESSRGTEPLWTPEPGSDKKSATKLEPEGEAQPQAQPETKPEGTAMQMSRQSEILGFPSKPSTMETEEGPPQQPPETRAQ

[5] = molecular target: Calcium/calmodulin-dependent protein kinase type 1G (Homo sapiens) (UniProt Q96NX5); experiment: Selectivity interaction (Ambit KINOMEscan and KiNATiv profiling in Jurkat cells) EUB0000090b CAMK1G; format: cell-based; conditions: at 1 µM
[6] = molecular target: T2, Protein arginine N-methyltransferase 9 (Homo sapiens) (UniProt Q6P2P2); experiment: Selectivity interaction (Methyltransferase screen (Scintillation proximity assays)) EUB0000255b PRMT9
T2 sequence (whole entry): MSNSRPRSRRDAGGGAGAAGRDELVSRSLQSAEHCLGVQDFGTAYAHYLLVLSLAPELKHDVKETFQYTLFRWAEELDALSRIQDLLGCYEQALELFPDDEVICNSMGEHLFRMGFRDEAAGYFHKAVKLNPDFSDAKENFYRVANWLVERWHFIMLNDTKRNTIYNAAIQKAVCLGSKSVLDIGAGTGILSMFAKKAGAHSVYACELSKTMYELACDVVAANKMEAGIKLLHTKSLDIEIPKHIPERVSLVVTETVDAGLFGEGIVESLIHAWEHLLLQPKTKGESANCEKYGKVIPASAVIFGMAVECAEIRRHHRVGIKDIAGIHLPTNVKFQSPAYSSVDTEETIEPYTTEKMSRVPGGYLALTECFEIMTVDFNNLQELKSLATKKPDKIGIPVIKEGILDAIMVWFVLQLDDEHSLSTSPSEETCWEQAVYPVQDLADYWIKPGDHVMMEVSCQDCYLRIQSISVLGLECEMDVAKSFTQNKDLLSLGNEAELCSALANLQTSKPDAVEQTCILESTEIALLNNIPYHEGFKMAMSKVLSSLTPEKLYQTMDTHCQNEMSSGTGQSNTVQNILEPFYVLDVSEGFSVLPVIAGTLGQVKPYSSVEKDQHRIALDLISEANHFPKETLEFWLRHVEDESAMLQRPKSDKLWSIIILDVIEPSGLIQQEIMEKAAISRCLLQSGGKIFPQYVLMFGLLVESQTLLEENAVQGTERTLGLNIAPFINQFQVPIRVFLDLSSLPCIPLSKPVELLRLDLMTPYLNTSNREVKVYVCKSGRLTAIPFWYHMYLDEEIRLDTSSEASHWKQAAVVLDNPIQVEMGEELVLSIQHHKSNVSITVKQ

[7] = molecular target: Activin receptor type-2B (Homo sapiens) (UniProt Q13705); experiment: Selectivity interaction (KinomeScan (DiscoverX)) EUB0000655a ACVR2B; conditions: at 10 µM
[8] = molecular target: Activin receptor type-1-like (Homo sapiens) (UniProt P37023); experiment: Selectivity interaction (KinomeScan (DiscoverX)) EUB0000618a ACVRL1; conditions: at 10 µM
[9] = molecular target: MAP kinase-interacting serine/threonine-protein kinase 1 (Homo sapiens) (UniProt Q9BUB5); experiment: Selectivity interaction (KinomeScan (DiscoverX)) EUB0000607a MKNK1; conditions: at 10 µM
[10] = molecular target: Rho-associated protein kinase 1 (Homo sapiens) (UniProt Q13464); experiment: Selectivity interaction (ActivX KiNativ screen (ex vivo kinase selectivity in human PBMCs)) EUB0001619a ROCK1; format: cell-based; conditions: PBMC, at 1 µM
[11] = molecular target: Serine/threonine-protein kinase WNK1 (Homo sapiens) (UniProt Q9H4A3); experiment: Selectivity interaction (ActivX KiNativ screen (ex vivo kinase selectivity in human PBMCs)) EUB0001619a WNK1; format: cell-based; conditions: PBMC, at 1 µM
[12] = molecular target: Serine/threonine-protein kinase PRP4 homolog (Homo sapiens) (UniProt Q13523); experiment: Selectivity interaction (Kinase panel (KiNativ target engagement assay in Jurkat cells)) EUB0001635a PRPF4; format: cell-based; conditions: Selectivity number of off-targets 0.0, Selectivity number of targets 233.0, Source Knowledge https://www.sciencedirect.com/science/article/pii/S2451945619300674?via%3Dihub, at 1 µM
[13] = molecular target: Serine/threonine-protein kinase SIK1 (Homo sapiens) (UniProt P57059); experiment: Selectivity interaction (KinomeScan (DiscoverX)) EUB0000229b SIK1; conditions: at 10 µM
[14] = molecular target: Dual specificity tyrosine-phosphorylation-regulated kinase 1B (Homo sapiens, UniProt Q9Y463); experiment: Selectivity interaction (ProQinase) EUB0000171b DYRK1B
[15] = molecular target: Serine/threonine-protein kinase N2 (Homo sapiens, UniProt Q16513); experiment: Selectivity interaction (ProQinase) EUB0000171b PKN2
[16] = molecular target: Sodium-dependent dopamine transporter (Homo sapiens, UniProt Q01959); experiment: Selectivity interaction (Safety Panel 44tm (Eurofins)) EUB0000162b SLC6A3; conditions: at 10 µM
[17] = molecular target: Ribosomal protein S6 kinase alpha-5 (Homo sapiens) (UniProt O75582); experiment: Selectivity interaction (KinomeScan (DiscoverX)) EUB0000877a RPS6KA5; conditions: at 10 µM
[18] = molecular target: Tyrosine-protein kinase Blk (Homo sapiens) (UniProt P51451); experiment: Selectivity interaction (KinomeScan (DiscoverX)) EUB0000666a BLK; conditions: at 10 µM
[19] = molecular target: Mitogen-activated protein kinase kinase kinase kinase 4 (Homo sapiens, UniProt O95819); experiment: Selectivity interaction (KinomeScan (DiscoverX)) EUB0000092b MAP4K4; conditions: at 10 µM
[20] = molecular target: Myosin-IIIa (Homo sapiens) (UniProt Q8NEV4); experiment: Selectivity interaction (KinomeScan (DiscoverX)) EUB0000092b MYO3A; conditions: at 10 µM
[21] = molecular target: Tyrosine-protein kinase JAK1 (Homo sapiens, UniProt P23458); experiment: Selectivity interaction (KinomeScan (DiscoverX)) EUB0000695a JAK1; conditions: at 100 nM
Sequence of Tyrosine-protein kinase JAK1 (P23458 whole entry): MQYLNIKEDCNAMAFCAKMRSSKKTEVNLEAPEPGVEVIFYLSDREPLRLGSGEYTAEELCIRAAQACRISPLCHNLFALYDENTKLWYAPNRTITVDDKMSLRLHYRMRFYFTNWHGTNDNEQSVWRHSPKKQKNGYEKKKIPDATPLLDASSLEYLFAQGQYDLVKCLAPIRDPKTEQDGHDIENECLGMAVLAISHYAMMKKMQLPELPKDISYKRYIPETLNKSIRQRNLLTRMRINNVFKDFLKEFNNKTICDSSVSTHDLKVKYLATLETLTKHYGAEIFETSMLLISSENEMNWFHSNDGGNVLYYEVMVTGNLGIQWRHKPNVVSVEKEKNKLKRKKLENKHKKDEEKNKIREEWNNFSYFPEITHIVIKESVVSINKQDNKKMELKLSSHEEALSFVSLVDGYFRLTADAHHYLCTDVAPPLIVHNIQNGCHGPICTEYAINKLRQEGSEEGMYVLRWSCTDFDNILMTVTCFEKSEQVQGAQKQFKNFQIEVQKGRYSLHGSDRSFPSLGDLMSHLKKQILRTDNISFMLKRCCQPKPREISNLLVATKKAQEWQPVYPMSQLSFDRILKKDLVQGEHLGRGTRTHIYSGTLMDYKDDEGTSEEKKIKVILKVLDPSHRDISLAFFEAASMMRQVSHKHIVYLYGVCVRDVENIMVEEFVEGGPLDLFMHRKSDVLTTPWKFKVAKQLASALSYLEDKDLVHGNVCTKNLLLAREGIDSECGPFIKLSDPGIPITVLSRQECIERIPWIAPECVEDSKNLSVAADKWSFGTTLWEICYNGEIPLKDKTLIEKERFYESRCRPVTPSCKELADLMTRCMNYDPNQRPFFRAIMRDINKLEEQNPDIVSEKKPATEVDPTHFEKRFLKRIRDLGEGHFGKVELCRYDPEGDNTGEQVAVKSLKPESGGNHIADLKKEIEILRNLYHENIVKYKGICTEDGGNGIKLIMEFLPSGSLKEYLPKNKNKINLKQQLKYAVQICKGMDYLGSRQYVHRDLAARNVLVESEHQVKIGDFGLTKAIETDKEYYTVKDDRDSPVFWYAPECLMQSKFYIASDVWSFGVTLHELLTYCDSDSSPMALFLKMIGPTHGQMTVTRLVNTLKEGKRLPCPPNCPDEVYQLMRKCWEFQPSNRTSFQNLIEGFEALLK

Sequence of Dual specificity tyrosine-phosphorylation-regulated kinase 1B (Q9Y463 whole entry, looked up): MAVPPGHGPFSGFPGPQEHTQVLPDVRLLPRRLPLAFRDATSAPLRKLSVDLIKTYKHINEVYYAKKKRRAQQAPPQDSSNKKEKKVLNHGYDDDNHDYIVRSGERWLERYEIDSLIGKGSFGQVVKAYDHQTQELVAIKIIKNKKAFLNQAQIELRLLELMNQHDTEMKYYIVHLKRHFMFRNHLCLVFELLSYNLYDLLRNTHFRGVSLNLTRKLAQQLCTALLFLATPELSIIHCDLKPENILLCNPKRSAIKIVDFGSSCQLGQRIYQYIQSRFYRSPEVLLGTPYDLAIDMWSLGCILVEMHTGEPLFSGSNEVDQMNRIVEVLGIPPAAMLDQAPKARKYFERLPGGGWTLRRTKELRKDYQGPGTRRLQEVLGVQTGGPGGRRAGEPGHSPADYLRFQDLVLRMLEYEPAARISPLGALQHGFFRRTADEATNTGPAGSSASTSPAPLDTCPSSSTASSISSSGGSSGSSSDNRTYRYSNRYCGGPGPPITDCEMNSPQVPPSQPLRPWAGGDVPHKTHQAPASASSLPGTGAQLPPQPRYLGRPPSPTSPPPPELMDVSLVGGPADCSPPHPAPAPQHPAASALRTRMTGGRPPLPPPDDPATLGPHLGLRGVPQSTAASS
Sequence of Serine/threonine-protein kinase N2 (Q16513 whole entry, looked up): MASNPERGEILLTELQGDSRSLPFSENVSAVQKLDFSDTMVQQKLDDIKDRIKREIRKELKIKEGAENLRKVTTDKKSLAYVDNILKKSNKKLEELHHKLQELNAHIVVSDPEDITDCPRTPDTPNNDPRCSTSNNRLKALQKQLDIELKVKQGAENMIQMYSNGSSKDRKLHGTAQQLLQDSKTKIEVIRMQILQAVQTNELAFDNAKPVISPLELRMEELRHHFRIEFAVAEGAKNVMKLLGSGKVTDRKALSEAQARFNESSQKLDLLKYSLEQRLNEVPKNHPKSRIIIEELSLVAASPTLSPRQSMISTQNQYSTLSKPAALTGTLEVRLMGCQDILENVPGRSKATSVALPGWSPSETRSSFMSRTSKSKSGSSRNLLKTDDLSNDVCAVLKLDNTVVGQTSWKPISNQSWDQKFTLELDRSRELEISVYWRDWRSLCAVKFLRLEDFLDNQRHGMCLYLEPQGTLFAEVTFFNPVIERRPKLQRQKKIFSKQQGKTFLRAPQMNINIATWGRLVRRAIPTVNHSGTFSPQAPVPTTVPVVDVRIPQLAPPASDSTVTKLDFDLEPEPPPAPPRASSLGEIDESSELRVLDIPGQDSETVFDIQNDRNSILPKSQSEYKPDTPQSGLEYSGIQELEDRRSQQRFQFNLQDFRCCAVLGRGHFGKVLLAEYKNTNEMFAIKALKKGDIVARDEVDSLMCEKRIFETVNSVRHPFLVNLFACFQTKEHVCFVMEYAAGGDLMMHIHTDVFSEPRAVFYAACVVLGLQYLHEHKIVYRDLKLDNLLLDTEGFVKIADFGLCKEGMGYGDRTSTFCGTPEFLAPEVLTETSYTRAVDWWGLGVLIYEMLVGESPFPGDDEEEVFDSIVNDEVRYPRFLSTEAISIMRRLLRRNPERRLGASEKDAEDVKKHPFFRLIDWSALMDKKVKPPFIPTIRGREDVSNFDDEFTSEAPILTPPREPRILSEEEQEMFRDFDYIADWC
Sequence of Activin receptor type-2B (Homo sapiens) (Q13705 whole entry): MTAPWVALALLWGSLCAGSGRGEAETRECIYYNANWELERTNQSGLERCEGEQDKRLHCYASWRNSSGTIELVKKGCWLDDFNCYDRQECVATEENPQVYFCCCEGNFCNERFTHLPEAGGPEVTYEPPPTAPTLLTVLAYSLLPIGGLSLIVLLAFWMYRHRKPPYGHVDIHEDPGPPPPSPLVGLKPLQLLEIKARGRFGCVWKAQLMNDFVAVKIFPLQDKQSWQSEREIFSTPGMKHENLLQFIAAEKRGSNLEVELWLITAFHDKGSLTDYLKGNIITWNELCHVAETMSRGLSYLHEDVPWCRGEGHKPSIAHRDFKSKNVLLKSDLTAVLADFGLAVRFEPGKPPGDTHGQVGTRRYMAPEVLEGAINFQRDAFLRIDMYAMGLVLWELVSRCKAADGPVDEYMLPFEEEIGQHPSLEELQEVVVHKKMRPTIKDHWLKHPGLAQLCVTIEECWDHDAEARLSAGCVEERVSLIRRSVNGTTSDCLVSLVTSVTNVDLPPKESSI
Sequence of MAP kinase-interacting serine/threonine-protein kinase 1 (Homo sapiens) (Q9BUB5 whole entry, looked up): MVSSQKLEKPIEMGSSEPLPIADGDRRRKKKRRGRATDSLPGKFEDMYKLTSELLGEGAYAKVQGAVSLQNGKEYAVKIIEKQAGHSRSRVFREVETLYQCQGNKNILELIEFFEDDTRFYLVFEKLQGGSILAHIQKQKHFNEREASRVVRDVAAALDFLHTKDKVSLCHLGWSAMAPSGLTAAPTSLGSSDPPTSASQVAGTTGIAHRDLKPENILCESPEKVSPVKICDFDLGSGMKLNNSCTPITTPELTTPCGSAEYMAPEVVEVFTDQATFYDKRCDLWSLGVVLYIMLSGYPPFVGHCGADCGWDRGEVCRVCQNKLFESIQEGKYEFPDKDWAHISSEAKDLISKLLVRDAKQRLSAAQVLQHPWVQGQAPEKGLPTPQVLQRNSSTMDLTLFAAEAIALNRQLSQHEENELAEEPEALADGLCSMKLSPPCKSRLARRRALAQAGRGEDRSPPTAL
Sequence of Activin receptor type-1-like (Homo sapiens) (P37023 whole entry): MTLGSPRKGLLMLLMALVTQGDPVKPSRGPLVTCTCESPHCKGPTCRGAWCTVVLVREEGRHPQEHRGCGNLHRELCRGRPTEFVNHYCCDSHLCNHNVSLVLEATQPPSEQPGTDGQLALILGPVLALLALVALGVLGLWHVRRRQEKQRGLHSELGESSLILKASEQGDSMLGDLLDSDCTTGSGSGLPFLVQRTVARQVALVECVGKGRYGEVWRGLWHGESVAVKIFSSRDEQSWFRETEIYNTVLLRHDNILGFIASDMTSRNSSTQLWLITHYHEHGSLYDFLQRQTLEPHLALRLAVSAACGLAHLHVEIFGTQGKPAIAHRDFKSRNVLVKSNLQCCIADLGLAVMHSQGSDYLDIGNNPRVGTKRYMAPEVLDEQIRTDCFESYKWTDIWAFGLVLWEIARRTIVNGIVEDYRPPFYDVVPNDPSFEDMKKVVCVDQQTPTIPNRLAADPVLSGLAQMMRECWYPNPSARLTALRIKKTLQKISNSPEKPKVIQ
Sequence of Ribosomal protein S6 kinase alpha-5 (Homo sapiens) (O75582 whole entry, looked up): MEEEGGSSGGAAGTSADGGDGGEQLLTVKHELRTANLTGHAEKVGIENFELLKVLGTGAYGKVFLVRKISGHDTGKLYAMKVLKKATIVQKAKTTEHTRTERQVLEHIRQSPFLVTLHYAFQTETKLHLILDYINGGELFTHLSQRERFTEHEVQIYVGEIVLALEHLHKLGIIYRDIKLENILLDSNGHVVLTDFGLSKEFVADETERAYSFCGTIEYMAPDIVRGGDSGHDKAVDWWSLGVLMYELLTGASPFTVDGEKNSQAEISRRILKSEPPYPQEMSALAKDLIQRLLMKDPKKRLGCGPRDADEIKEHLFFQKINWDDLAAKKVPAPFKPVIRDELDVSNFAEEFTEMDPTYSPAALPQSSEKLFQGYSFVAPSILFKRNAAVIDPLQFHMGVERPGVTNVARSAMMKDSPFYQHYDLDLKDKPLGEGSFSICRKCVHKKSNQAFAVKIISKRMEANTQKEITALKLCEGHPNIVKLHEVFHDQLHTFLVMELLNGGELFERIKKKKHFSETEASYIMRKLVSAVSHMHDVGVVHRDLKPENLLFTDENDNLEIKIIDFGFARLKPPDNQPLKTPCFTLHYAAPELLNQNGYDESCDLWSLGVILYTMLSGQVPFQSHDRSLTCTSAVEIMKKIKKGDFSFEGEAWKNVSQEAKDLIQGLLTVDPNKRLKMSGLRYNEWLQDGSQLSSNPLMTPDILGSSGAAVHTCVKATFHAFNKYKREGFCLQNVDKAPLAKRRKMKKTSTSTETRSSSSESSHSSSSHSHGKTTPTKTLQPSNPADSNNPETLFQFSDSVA

% of control [1]: 100%
% of control [2]: 100%
Compound: CCN(CC)CCCCNc1ncc2cc(-c3cc(OC)cc(OC)c3)c(NC(=O)NC(C)(C)C)nc2n1

Compound: CN(C)C/C=C/C(=O)Nc1ccc(C(=O)N2CCCC(Nc3ncc(Cl)c(-c4c[nH]c5ccccc45)n3)C2)cc1 (centres undefined)
% of control [3]: 88%
% of control [4]: 83%
% of control [5]: 81%

Compound: COCCN1CCC(c2cc(CN(C)C(=O)c3cccc(Oc4ccccc4)c3)ccn2)CC1
% activity ([6]; at 1 µM): 90%
% activity ([6]; at 10 µM): > 90%

Compound: CN(C)CCOc1ccc(-c2nc(-c3ccncc3)c(-c3ccc4c(c3)CC/C4=N\O)[nH]2)cc1
% of control [7]: 98%

Compound: O[C@H]1CC[C@H](Nc2ncc3nc(Nc4c(F)cc(F)cc4F)n([C@H]4CCOC4)c3n2)CC1
% of control [8]: 72%

Compound: CNC(=O)Nc1ccc(-c2nc(N3CC4CCC(C3)O4)c3cnn(C4CCC5(CC4)OCCO5)c3n2)cc1
% of control [9]: 100%

Compound: N#Cc1cccc(-c2c[nH]c3ncnc(N4CCOCC4)c23)c1
% of inhibition [10]: -3%
% of inhibition [11]: -6%

Compound: C=CC(=O)Nc1ccc(C(=O)Nc2[nH]nc3c2CN(C(=O)N[C@H](CN(C)C)c2ccccc2)C3(C)C)cc1
% of engagement [12]: -13.3%

Compound: COc1cc(N(C)c2ccnc3ccc(C(F)(F)F)cc23)cc(OC)c1OC
% binding [13]: 96%

% of control ([14]; at 1 µM): 85%
% of control ([14]; at 5 µM): 53%
% of control ([15]; at 1 µM): 90%
% of control ([15]; at 5 µM): 76%
Compound: C=CC(=O)Nc1cccc(C(=O)Nc2ccc(Nc3cc(-c4[nH]c(SC)nc4C)ccn3)cc2)c1

Compound: CN(C)C(=O)Cn1cc(-c2ccc(-c3cncc4ccccc34)cc2)cn1
% of control [16]: 87%

% of inhibition [17]: 76%
Compound: CCC(=O)N1CC[C@H](Nc2ncnc3c2CN(c2cnc(OC)c(C(F)(F)F)c2)CC3)C1 [LENIOLISIB]

Compound: O=C(NOC[C@H](O)CO)c1ccc(F)c(F)c1Nc1ccc(I)cc1F
% of control [18]: 83%

Compound: CCC(=O)N1CCN(c2ccc(-n3c(=O)ccc4cnc5ccc(-c6cnc7ccccc7c6)cc5c43)cc2C(F)(F)F)CC1
% of control [19]: 5.2%
% of control [20]: 100%

Compound: Cc1cc(F)c(C(=O)Nc2cccc(-c3nncn3C(C)C)n2)cc1-n1cnc(C2CC2)c1
% of control [21]: 60%
